Experimental data as given in PubChem BioAssay (NCI).
“And” between values parts separate entries of the source, which are not always exact repeats. Equal values may be shown once.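 Cells were grown in 96-well plates and exposed to each compound for 48 hours at five concentrations; endpoints were interpolated linearly between bracketing concentrations, or set to the highest concentration if not reached. At the GI50, growth is halved. The concentration for full growth arrest is given as TGI.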

Experiments:
Assay in all cases: NCI-60 cell line screen, 48 h
HOP-92 NSCLC = system: HOP-92 NSCLC
NCI-H460 lung = system: NCI-H460 lung
NCI-H522 lung = system: NCI-H522 lung
OVCAR-3 ovarian = system: OVCAR-3 ovarian
OVCAR-8 ovarian = system: OVCAR-8 ovarian
SK-MEL-28 melanoma = system: SK-MEL-28 melanoma
SNB-75 CNS = system: SNB-75 CNS
UACC-257 melanoma = system: UACC-257 melanoma
DLD-1 colon = system: DLD-1 colon
SNB-78 CNS = system: SNB-78 CNS

Structure (SMILES)	GI50 (HOP-92 NSCLC)	TGI (HOP-92 NSCLC)	GI50 (NCI-H460 lung)	TGI (NCI-H460 lung)	GI50 (NCI-H522 lung)	TGI (NCI-H522 lung)	GI50 (OVCAR-3 ovarian)	TGI (OVCAR-3 ovarian)	GI50 (OVCAR-8 ovarian)	TGI (OVCAR-8 ovarian)	GI50 (SK-MEL-28 melanoma)	TGI (SK-MEL-28 melanoma)	GI50 (SNB-75 CNS)	TGI (SNB-75 CNS)	GI50 (UACC-257 melanoma)	TGI (UACC-257 melanoma)	TGI (DLD-1 colon) [µM]	TGI (SNB-78 CNS) [µM]	GI50 (DLD-1 colon) [µM]	GI50 (SNB-78 CNS) [µM]
Cc1cc2c(cc1Cl)SC1=NN(C)C(c3ccccc3O)N1S2(=O)=O (centres undefined)	37.6 µM	> 100 µM	37.4 µM	> 100 µM	> 100 µM	> 100 µM	46 µM	> 100 µM	68 µM	> 100 µM	86.2 µM	> 100 µM	> 100 µM	> 100 µM	> 100 µM	> 100 µM	–	–	–	–
CCOC(=O)Cc1csc(NC(=O)C(OC(=O)c2ccc(N)cc2)c2ccccc2)n1 (centres undefined)	62 µM	> 100 µM	32.7 µM	> 100 µM	43 µM	> 100 µM	20.5 µM	45.3 µM	73.6 µM	> 100 µM	30.9 µM	98 µM	45.9 µM	> 100 µM	40.5 µM	> 100 µM	–	–	–	–
O=C1CC2Sc3ccccc3N=C2N1c1ccc(Cl)cc1Cl (centres undefined)	–	> 100 µM	–	> 100 µM	–	–	–	> 100 µM	–	> 100 µM	–	> 100 µM	–	> 100 µM	–	> 100 µM	> 100	> 100	–	–
CCCCCCCCC(=O)NCCCNCCCNC(=O)CCCCCCCC	–	14.1 µM	–	6.57 µM	–	18.8 µM	–	30.5 µM	–	32.9 µM	–	25.6 µM	–	–	–	19.9 µM	7.7	26	–	–
OCCCCC#Cc1ccccc1C#Cc1cnccn1	19.5 µM	88.4 µM	27.4 µM	96.9 µM	24.5 µM	63.7 µM	31.3 µM	> 100 µM	33 µM	> 100 µM	43.4 µM	> 100 µM	17.3 µM	53.7 µM	26 µM	62 µM	–	–	–	–
Clc1ccccc1C1=NN(c2ccccc2)C2c3cc(Br)ccc3OCC12 (centres undefined)	–	> 100 µM	–	> 100 µM	–	> 100 µM	–	> 100 µM	–	> 100 µM	–	> 100 µM	–	> 100 µM	–	> 100 µM	> 100	> 100	–	–
CC1SC2(CCCCC2)N(NC(=O)c2[nH]c3ccc(F)cc3c2-c2ccccc2)C1=O (centres undefined)	16.9 µM	59.9 µM	> 100 µM	> 100 µM	54.4 µM	> 100 µM	25.2 µM	> 100 µM	23.1 µM	63.5 µM	> 100 µM	> 100 µM	27.2 µM	62 µM	90.9 µM	> 100 µM	–	–	–	–
CC[C@@]1(OC(=O)CN(C)C)C(=O)OCc2c1cc1n(c2=O)Cc2cc3ccccc3nc2-1	0.216 µM	0.944 µM and 2.19 µM	–	0.147 µM	0.0396 µM	3.45 µM and 1.68 µM	0.356 µM	2.15 µM and 1.73 µM	0.0521 µM	–	1.01 µM	–	0.0475 µM	5.8 µM and 4.3 µM	0.131 µM	1.12 µM and 1.31 µM	30.4	> 100	0.806	0.957
Cc1ns/c(=N\C(=S)N(C)C)n1C	–	> 100 µM	–	> 100 µM	–	> 100 µM	–	–	–	> 100 µM	–	> 100 µM	–	> 100 µM	–	> 100 µM	> 100	> 100	–	–
CCN(CC)CCOc1ccc(C2=C(c3ccccc3)CCc3cc(OC)ccc32)cc1	3.64 µM	10.9 µM	1.84 µM	3.52 µM	3.03 µM	9.25 µM	5.64 µM	15.7 µM	3.15 µM	10.5 µM	1.62 µM	3.19 µM	1.4 µM	4.62 µM	1.81 µM	3.6 µM	–	–	–	–
COc1cc(OC)cc(N2CCN(C(=O)Nc3nc4cc(F)ccc4nc3OC)CC2)c1	< 0.01 µM and 0.0062 µM	19.3 µM and 3.83 µM and 6.77 µM	0.0323 µM and 0.0358 µM and 0.0339 µM	25.3 µM and 14.9 µM	0.012 µM and 0.0225 µM	0.534 µM and 0.581 µM and 0.146 µM	0.0232 µM and 0.0252 µM and 0.0219 µM	–	0.0437 µM and 0.0499 µM and 0.056 µM	> 100 µM	10.9 µM and 6.92 µM	74.9 µM and 37 µM	0.0197 µM and 0.0243 µM	56.4 µM and 57.2 µM	20.1 µM and 12.7 µM	73.4 µM and 56.8 µM	–	–	–	–
Nc1ccc2c(c1)CN1C(=O)c3ccccc3C1=N2	47.9 µM	110 µM	–	> 125 µM	12.8 µM	112 µM	98.8 µM	> 125 µM	–	115 µM	–	> 125 µM	–	69.5 µM	67.5 µM	> 125 µM	> 125	> 79.4	–	–
N#CC(=C=[N-])[n+]1ccc(Cl)cc1	–	29.8 µM	–	55.5 µM	–	9.55 µM	–	31.5 µM	–	37.9 µM	–	–	–	32.2 µM	–	29.5 µM	24.4	42.4	–	–
CCCOc1c2cc(COC3OC(CO)C(O)C(O)C3O)cc1Cc1cc(COC3OC(CO)C(O)C(O)C3O)cc(c1OCCC)Cc1cc(COC3OC(CO)C(O)C(O)C3O)cc(c1OCCC)Cc1cc(COC3OC(CO)C(O)C(O)C3O)cc(c1OCCC)C2 (centres undefined)	–	> 100 µM	56.9 µM and > 100 µM and 30.3 µM	> 100 µM and 92.3 µM	32.4 µM and 72.8 µM and 13.7 µM	> 100 µM and 26.6 µM	53.2 µM and > 100 µM and 19.3 µM	> 100 µM and 51.7 µM	> 100 µM and 18.4 µM	> 100 µM and 42.6 µM	> 100 µM and 14.5 µM	> 100 µM and 29 µM	18.5 µM and 55.4 µM and 22.2 µM	93.7 µM and > 100 µM and 62.8 µM	67.1 µM and > 100 µM and 33.6 µM	> 100 µM	–	–	–	–
N#CC1(C#N)C2C=CC(C3CCC=C32)C1(C#N)C#N (centres undefined)	–	> 10 µM	–	> 10 µM	–	> 7.9 µM	–	> 10 µM	–	> 10 µM	–	> 10 µM	–	> 10 µM	–	> 10 µM	–	–	–	–
COc1ccc(N=C2NN=C(c3c[nH]c4ccccc34)CS2)cc1OC	5.81 µM	> 58.1 µM	4.11 µM	> 45.2 µM	7.17 µM	> 100 µM	2.87 µM	> 40.6 µM	22.7 µM	> 89.9 µM	15.3 µM	> 90.4 µM	3.34 µM	20.6 µM	11.1 µM	> 56.6 µM	–	–	–	–
O=C1c2cccc3cccc(c23)C(=O)N1CCCN1CCN(CCCN2C(=O)c3cccc4cccc(c34)C2=O)CC1	–	> 100 µM	–	> 100 µM	–	–	–	> 100 µM	–	> 100 µM	–	–	–	> 100 µM	–	> 100 µM	> 100	> 100	–	–
